The target in one test is T1, GluN1+NR2A (Homo sapiens, UniProt Q05586+Q12879).
T1 construct: expressed in transfected cells; host or cells: CHO cells
Put plainly: Whole-cell patch clamp, blocking of GluN1+NR2A NMDAR current in CHO cells. In kind it is cell-based. The settings on record: 100 μM NMDA and 1 μM glycine, read-out: IC50 of competitive antagonism against glutamate binding GluN1+NR2A currents. On the procedure: Figure a illustrates LK-2 concentration-dependent blocking of signal of GluN1+GluN2A and GluN1+GluN2B subtypes of NMDAR currents (recorded from the same CHO cell) in patch clamp experiments, with 100 μM NDMA and 1 μM glycine used to activate NMDAR currents. LK-2 concentrations were 1, 10, 100, and 500 μM in sequence. Figure b illustrates the dose-response curves fitted based on the current amplitudes recorded in Figure a, with IC50 representing the half-maximal inhibitory concentration. Smaller IC50 values indicate stronger blocking effects of the compound.
[drawing 3] • 2. Electrophysiological experiments refer to the use of patch clamp techniques to overexpress ASICs (ASIC1a) and NMDARs (GluNR1+NR2A or GluNR1+NR2B) in CHO cell lines (Chinese hamster ovary cells), with the above-mentioned proteins carrying GFP green fluorescent protein for identification under fluorescence microscopy. The synthesized small molecules are separately tested for their blocking effects on the currents generated by the two types of receptors, and the IC50 values are calculated. • 2.1 The experimental steps of the membrane clamp technique are as follows.
Whole-cell patch clamp recordings were performed on neurons or CHO cells cultured in a cell-culture dish mounted on a fixed stage upright microscope. The recording electrode (resistance 4-6 MΩ) was made of 1.5 mm borosilicate glass. […]

Test [1] deals with CHO cells transfected with ASIC1a. Kind of test: PI cell death staining of ASIC1a-transfected CHO cells treated with glutamate at pH 7. In kind it is cell-based, Chinese hamster. The settings on record: 10 μM; 500 μM glutamate, pH 7, 1 hour. On the procedure: Figure a illustrates cortical neurons staining from wild-type (ASIC1a+/+) and gene-deficient (ASIC1a−/−) mice primary cultures in the calcein-PI staining experiment. Blue green represents viable cells, and red represents dead cell nuclei. 10 μM CGS19755 and 10 μM LK-2 were added respectively in the cell culture medium under pH 7.0 conditions with OGD to be treated for 1 hour. Figure c illustrates, after being treated in the same experimental groups as Figure a, the analysis of each group of LDH of relative release levels. Figure d illustrates PI staining of ASIC1a-transfected CHO cells after 1 hour of treatment with pH 7.0 and 500 μM glutamate (Glu). […]
Taking into consideration that in addition to ASIC1a, neurons also express multiple membrane proteins that can be activated and lead to cell death during OGD, in order to more accurately verify that cell death is caused by glutamate activation of ASIC1a and that LK-2 indeed competitively antagonizes the glutamate so as to reduce cell death, we conducted the following experiment: CHO cells transfected with ASIC1a-GFP were divided into a control group (500 μM glutamate) and a drug intervention group (500 μM glutamate+10 μM LK-2). […] Live and dead cell nuclei were determined by observing under a 40× objective using excitation wavelengths of 488 nm and 546 nm. The number of stained cell nuclei was counted using Image-J software.

T1 sequence (Q12879 23-1464, other chains not shown): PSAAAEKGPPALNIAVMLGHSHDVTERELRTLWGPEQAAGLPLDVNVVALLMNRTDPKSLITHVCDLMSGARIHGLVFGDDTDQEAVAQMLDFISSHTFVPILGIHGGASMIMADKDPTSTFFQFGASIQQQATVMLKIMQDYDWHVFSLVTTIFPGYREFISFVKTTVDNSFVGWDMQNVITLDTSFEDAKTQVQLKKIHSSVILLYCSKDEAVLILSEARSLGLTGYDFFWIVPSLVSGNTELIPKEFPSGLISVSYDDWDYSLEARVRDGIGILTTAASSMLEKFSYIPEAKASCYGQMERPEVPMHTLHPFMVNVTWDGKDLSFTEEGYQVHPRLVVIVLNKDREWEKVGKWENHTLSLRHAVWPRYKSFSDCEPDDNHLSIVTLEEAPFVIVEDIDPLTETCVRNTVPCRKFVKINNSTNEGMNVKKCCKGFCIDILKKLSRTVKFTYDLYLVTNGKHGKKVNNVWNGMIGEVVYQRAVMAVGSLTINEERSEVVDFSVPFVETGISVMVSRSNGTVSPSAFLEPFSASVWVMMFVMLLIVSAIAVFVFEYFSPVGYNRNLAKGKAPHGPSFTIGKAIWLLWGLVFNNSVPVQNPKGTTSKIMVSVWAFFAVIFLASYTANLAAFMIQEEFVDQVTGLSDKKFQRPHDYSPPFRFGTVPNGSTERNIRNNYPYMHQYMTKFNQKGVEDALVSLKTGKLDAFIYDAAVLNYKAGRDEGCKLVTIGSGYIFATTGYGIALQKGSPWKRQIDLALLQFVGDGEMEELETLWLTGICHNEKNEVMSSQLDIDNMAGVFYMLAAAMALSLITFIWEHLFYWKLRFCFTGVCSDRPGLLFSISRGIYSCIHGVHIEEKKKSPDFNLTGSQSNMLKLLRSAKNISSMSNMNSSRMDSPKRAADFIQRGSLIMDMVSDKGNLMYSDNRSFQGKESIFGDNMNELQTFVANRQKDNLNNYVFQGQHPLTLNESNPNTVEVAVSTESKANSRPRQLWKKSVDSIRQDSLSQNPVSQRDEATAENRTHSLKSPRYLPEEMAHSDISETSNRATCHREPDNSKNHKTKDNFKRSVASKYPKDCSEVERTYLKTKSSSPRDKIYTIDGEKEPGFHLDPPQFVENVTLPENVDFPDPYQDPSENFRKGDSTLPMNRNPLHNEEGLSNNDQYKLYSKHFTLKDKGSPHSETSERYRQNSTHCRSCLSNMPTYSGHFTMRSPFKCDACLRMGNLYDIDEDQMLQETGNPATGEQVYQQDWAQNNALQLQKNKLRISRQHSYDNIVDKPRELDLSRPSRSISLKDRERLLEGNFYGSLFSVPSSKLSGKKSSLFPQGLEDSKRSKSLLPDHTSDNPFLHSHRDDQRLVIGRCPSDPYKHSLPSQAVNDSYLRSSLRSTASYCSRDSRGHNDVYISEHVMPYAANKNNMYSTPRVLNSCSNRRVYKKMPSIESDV

Take `O=C(O)C1CN(C(c2ccccc2)P(=O)(O)O)CCN1` (centres unmarked) [LK-2]: on GluN1+NR2A, the IC50 was found to be 93.1 ± 28.3 µM. Also, in test [1], the “reduction of death rate of transfected cells” value is recorded as 40%.

One may read the IC50 as the midpoint of a concentration-inhibition curve.

Values taken from patent US20250120988A1, “SMALL MOLECULE COMPOUND FOR TREATING ISCHEMIC STROKE, ITS PREPARATION METHOD, AND APPLICATION” (SHANGHAI SIXTH PEOPLE'S HOSPITAL, priority 2023, published 2025).
